Source: PMC12392461, “Beyond Estrogenicity: A Comparative Assessment of Bisphenol A and Its Alternatives in In Vitro Assays Questions Safety of Replacements” (Environmental Science & Technology, 2025)
Like-named read-outs stand apart in the source and are kept apart here.

Biological target: T1, Aryl hydrocarbon receptor (Rattus norvegicus, UniProt P41738)
T1 sequence (P41738 10-853): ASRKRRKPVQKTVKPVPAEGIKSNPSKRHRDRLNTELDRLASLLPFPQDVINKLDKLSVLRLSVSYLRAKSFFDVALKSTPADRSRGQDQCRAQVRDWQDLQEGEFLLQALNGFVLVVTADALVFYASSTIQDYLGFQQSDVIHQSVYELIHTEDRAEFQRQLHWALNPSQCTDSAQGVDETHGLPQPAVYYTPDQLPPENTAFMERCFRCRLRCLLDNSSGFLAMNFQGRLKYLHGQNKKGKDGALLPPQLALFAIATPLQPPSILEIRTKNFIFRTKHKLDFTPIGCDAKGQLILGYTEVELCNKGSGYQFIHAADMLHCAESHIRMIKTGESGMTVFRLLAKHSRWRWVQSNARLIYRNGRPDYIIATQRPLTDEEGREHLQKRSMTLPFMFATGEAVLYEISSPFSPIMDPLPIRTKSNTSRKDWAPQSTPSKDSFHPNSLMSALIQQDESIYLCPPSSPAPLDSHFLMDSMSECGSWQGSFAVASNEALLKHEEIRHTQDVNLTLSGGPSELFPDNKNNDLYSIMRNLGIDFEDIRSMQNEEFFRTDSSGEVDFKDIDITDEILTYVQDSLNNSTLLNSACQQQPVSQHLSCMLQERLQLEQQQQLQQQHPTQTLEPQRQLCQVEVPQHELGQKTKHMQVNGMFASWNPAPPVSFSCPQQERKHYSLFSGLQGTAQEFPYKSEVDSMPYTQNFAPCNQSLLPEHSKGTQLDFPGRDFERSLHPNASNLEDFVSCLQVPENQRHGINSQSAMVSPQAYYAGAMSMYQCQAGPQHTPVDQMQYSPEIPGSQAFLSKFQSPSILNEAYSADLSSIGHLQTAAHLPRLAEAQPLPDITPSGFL
Settings: for EC10, linear transformed / EC10, linear / logEC10: Bioassay AhR, dosing range all; for EC10, linear: linear model fit; for logEC10: log-logistic model fit; for SR-ScoreAhR: SR-Score, sigma k=1, x=5; for Specificity ratio (SRbaseline) SRAhR: against baseline cytotoxicity; for EC10, AhR: effect; for log(1/EC10) AhR: input of the ToxPi score, values up to 1.00
Description: All bioassay media components and the ERα-UAS-bla GripTite and PPARγ-UAS-bla cells were obtained from Thermo Fisher Scientific (Waltham, MA, USA). AREc32 reporter gene cells based on MCF7 were provided by C. Roland Wolf (Cancer Research UK); AhR CALUX cells (H4L7.5c2 derived from H4IIe) were provided by Michael Denison (UC Davis, USA); and SH-SY5Y cells were purchased from Sigma-Aldrich.
Cell culture conditions and bioassay protocols including response detection are provided in Text S2.1–2.4 and Table S3. − Cell viability was determined from cell confluency using an IncuCyte S3 Live-Cell Analysis System (Sartorius AG, Essen, Germany) before and after exposure, except for SH-SY5Y cells (live–dead staining with Nuclear Green LcS1 and propidium iodide, Abcam, UK). For metabolic activation experiments, cell viability was assessed using the ToxBLAzer DualScreen Kit (Thermo Fisher Scientific) to capture the remaining toxicity in ERα-UAS-bla GripTite after treatment with the aCYP catalyst (details in Text S2.4).
For ARE, the concentration that triggered an induction ratio of 1.5 (ECIR1.5) was used as the benchmark value, as detailed in Text S2.5. IC10 values also served as a threshold for data analysis in all assays; only concentrations below IC10 were considered when deriving EC10 or ECIR1.5. […]
S2: Cell culture and bioassays
S2.1: Cell Culturing Conditions
All suppliers and sources are given in detail in SI-Excel S3. The bioassay media for the different assays were prepared as follows: Assay medium for ER alpha-UAS-bla GripTite (ERα) and PPAR gamma-UAS-bla 293H (PPARγ) was prepared with 98% Opti-MEM, supplemented with 2% charcoal-stripped FBS, and 100 U/mL penicillin-streptomycin. MitoOxTox and AhR assay medium was comprised of 90% DMEM with GlutaMAX, supplemented with 10% FBS, and 100 U/mL penicillin-streptomycin. Neurotoxicity assay medium consisted of the neurobasal […]
(1 picture or pasted object on this page, not shown here) […]
medium, supplemented with 2% B-27 Supplement and 2 mM GlutaMAX Supplement. SH - SY5Y cells were differentiated with 10 µM all-trans retinoic acid prior to the assay.
S2.2: Cell Seeding and Incubation. For all bioassays, cell suspensions in the respective assay medium were dispensed into each well of 384-well plates using a MultiFlo Dispenser (Biotek, (now Agilent), Winooski, VT, U.S.). After seeding, the plates were incubated at 37° C and 5% CO₂ for […]. The final cell densities and plate types were as follows: Black poly-D-lysine coated 384-well plates (Product No. 354663, Corning Inc., NYC, U.S.) were used for PPARγ:
6500 cells/well, ERα: 5000 cells/well. White 384-well plates with a clear bottom (Product No.
781098, Greiner, Kremsmünster, Austria) were utilized for the MitoOxTox assay: 2650

[1] = against experimental cytotoxicity

Structure (SMILES) | EC10, linear transformed | EC10, linear | logEC10 | EC10, AhR (M) | SR-ScoreAhR | Specificity ratio (SRbaseline) SRAhR | Specificity ratio (SRcytotoxicity) SRAhR [1] | EC10, AhR [µM] | log(1/EC10) AhR | Specificity ratio (SRcytotoxicity) SRAhR (rat, 24 h) | SR (AhR) (specificity ratio)
CC1(C)[C@H](O)C(C)(C)[C@H]1O [Trans TMCD] | 8.49E-03 | no effect | -2.00 | – | – | – | – | – | – | – | –
CC(C)(c1ccc(O)c(-c2ccccc2)c1)c1ccc(O)c(-c2ccccc2)c1 [BPPH, 2,2-Bis(2-hydroxy-5-biphenylyl)propane] | 9.38E-06 | 9.54E-06 | -5.02 | 9.54 × 10^–6 M | 0.0254 | 0.43 | 1.35 | 9.54 | 0.99 | – | –
O=S(=O)(c1ccc(O)cc1)c1ccccc1O [2,4-BPS, 2,4'-Dihydroxydiphenyl sulfone] | – | no effect | no effect | – | – | – | – | – | 0.74 | – | –
Cc1cc(Cc2cc(C)c(O)c(C)c2)cc(C)c1O [TMBPF, Bis(3,5-dimethyl-4-hydroxyphenyl)methane] | 1.03E-04 | no effect | no effect | – | – | – | – | – | – | – | –
Oc1ccc(Sc2ccc(O)cc2)cc1 [BPT, 4,4'-Thiodiphenol] | 9.56E-05 | no effect | masked by cytotoxicity | – | – | – | – | – | 0.82 | – | –
O=C(OCc1ccccc1)c1ccc(O)cc1 [BzPB, Benzyl 4-hydroxybenzoate] | 1.73E-04 | no effect | no effect | – | – | – | – | – | 0.80 | – | –
CC(C)Oc1ccc(S(=O)(=O)c2ccc(O)cc2)cc1 [D8, 4-((4-Isopropoxyphenyl)sulfonyl)phenol] | – | no effect | no effect | – | – | – | – | – | 0.75 | – | –
CC1(C)[C@H](O)C(C)(C)[C@H]1O [t-TMCD, trans-2,2,4,4-Tetramethyl-1,3-cyclobutanediol] | – | – | – | – | – | – | – | – | 0.30 | – | –
CC(C)c1cc(C(C)(C)c2ccc(O)c(C(C)C)c2)ccc1O [BPG, 2,2-Bis(4-hydroxy-3-isopropylphenyl)propane] | – | no effect | no effect | – | – | – | – | – | 0.96 | – | –
CC(C)CC(C)(c1ccc(O)cc1)c1ccc(O)cc1 [BP-MIBK, 4,4'-(1,3-Dimethylbutylidene)diphenol] | – | no effect | no effect | – | – | – | – | – | 0.86 | – | –
CC1(C)C(O)C(C)(C)C1O (racemic) [r-TMCD, 2,2,4,4-Tetramethyl-1,3-cyclobutanediol (racemate)] | – | no effect | no effect | – | – | – | – | – | – | – | –
CC(C)(c1ccc(O)cc1)c1ccc(O)cc1 [BPA, 4,4'-(Propane-2,2-diyl)diphenol, reference compound] | 3.80E-04 | 2.64E-04 | no effect | 2.64 × 10^–4 M | 0.00737 | 0.10 | – | 264 | 0.79 | 0.00 | ≤ 10
Oc1ccc(Cc2ccc(O)cc2)cc1 [BPF, Bis(4-hydroxyphenyl)methane] | 2.17E-04 | 1.67E-04 | masked by cytotoxicity | – | – | – | – | – | 0.66 | – | –
CCC(C)(c1ccc(O)cc1)c1ccc(O)cc1 [BPB, 4,4'-(Butane-2,2-diyl)diphenol] | – | no effect | no effect | – | – | – | – | – | 0.83 | – | –
Cc1ccc(S(=O)(=O)NC(=O)Nc2cccc(OS(=O)(=O)c3ccc(C)cc3)c2)cc1 [Pergafast, N-(p-toluenesulfonyl)-N'-(3-(p-toluenesulfonyloxy)phenyl)urea] | 2.45E-05 | 2.29E-05 | -4.61 | 2.29 × 10^–5 M | 0.73 | 6.02 | – | 22.9 | – | – | –
O=S(=O)(c1ccc(O)cc1)c1ccc(O)cc1 [BPS, 4,4'-Sulfonyldiphenol] | – | no effect | no effect | – | – | – | – | – | 0.68 | – | –
CC(c1ccc(O)cc1)c1ccc(O)cc1 [BPE, 4,4′-Ethylidenbisphenol] | 7.73E-05 | 6.19E-05 | -4.12 | 6.19 × 10^–5 M | 0.0256 | – | – | 61.9 | – | – | –
CC(C)(c1cc(Cl)c(O)c(Cl)c1)c1cc(Cl)c(O)c(Cl)c1 [TCBPA, 2,2',6,6'-Tetrachlorobisphenol A] | 7.24E-05 | 1.69E-04 | no effect | – | – | – | – | – | 0.84 | – | –
Oc1ccc(C(c2ccc(O)cc2)(C(F)(F)F)C(F)(F)F)cc1 [BPAF, 4,4'-(1,1,1,3,3,3-Hexafluoropropane-2,2-diyl)diphenol] | – | no effect | no effect | – | – | – | – | – | 0.92 | – | –
CC(C)(c1ccc(OCC2CO2)cc1)c1ccc(OCC2CO2)cc1 (centres unmarked) [BADGE, Bisphenol A diglycidyl ether] | – | no effect | no effect | – | – | – | – | – | – | – | –
CC(c1ccccc1)(c1ccc(O)cc1)c1ccc(O)cc1 [BPAP, 4,4'-(1-Phenylethylidene)bisphenol] | – | no effect | no effect | – | – | – | – | – | – | – | –
C=CCOc1ccc(S(=O)(=O)c2ccc(O)cc2)cc1 [BPS-MAE, 4-[[4-(Allyloxy)phenyl]sulfonyl]phenol] | – | no effect | no effect | – | – | – | – | – | 0.71 | – | –
O=S(=O)(c1ccc(O)cc1)c1ccc(OCc2ccccc2)cc1 [BPS-MPE, 4-[4-(benzyloxy)benzenesulfonyl]phenol] | – | no effect | no effect | – | – | – | – | – | 0.91 | – | –
COC(=O)C(c1ccc(O)cc1)c1ccc(O)cc1 [Bz, Methyl bis(4-hydroxyphenyl)acetate] | 5.80E-05 | 6.20E-05 | -3.94 | 6.20 × 10^–5 M | 0.0375 | 5.57 | 1.75 | 62 | – | – | –
Cc1ccc(S(=O)(=O)NC(=O)Nc2ccc(Cc3ccc(NC(=O)NS(=O)(=O)c4ccc(C)cc4)cc3)cc2)cc1 [BTUM, 4,4'-Bis(p-tolylsulfonylureido)diphenylmethane] | – | no effect | no effect | – | – | – | – | – | – | – | –
